Results taken from paper PMC11801715, “Activating PKC-ε induces HIV expression with improved tolerability” (PLOS Pathogens, 2025).

Tests used:
[1] = molecular target: PKC-γ (Homo sapiens, UniProt P05129); test: PKC isoform translocation in A549-tGFP cells; format: cell-based; design: host or cells: A549; conditions: 60 minutes
[2] = In vivo monkey study: tolerability, clinical pathology, histopathology; design: species or system rhesus macaque; conditions: male, rhesus monkey, in vivo; single IV infusion; read-out: maximum tolerated dose
Protocol: (§1) Male rhesus macaque monkeys (young adult to adult) were sourced from the Covance stock colony for conduct of in vivo studies at Covance Laboratories Inc. (Madison, Wisconsin, USA). Monkeys were administered a single dose of vehicle control (n = 3), 0.03, 0.1, 0.3, or 1 mg/kg of C-232A (n = 1) by intravenous infusion over 30 minutes using a sentinel approach. An additional 2 male monkeys were administered 0.3 mg/kg C232A after it was determined that this was the maximum tolerated dose level. Blood samples were collected through 24 hours postdose. Samples for PK (for measurement of C-232A concentration) and cytokine analysis were processed to plasma and shipped to Gilead Sciences. Activation of CD4^+ T cells was assessed by measuring CD69 expression levels in whole blood by flow cytometry (Covance Laboratories). Samples for clinical pathology were analyzed at Covance Laboratories for hematology, coagulation, and clinical chemistry panels. At unscheduled necropsy (1 mg/kg C-232A), tissues were preserved in 10% neutral-buffered formalin, embedded in paraffin, and processed to slides for staining with hematoxylin and eosin. Tissues were then evaluated independently (Experimental Pathology Laboratories, Inc).

[3] = test system: rhesus macaques; test: as above; design: species or system rhesus macaque
Protocol: as §1

[4] = molecular target: PKC-α (Homo sapiens, UniProt P17252); test: PKC isoform translocation in A549-tGFP cells; format: cell-based; design: host or cells: A549; conditions: A549-tGFP cells, 60 minutes; read-out: EC50 for PKC-α translocation
Protocol: A description of this effort is reported elsewhere.
Cellular translocation of PKC isoforms upon activation was determined in 8 A549 cell lines, each expressing a single PKC isoform fused to tGFP (PhenoVista Biosciences). Cells were plated in 384-well plates (80 μL/well) at 10^5 cells/mL in RPMI with 10% FBS and rested overnight. PKC agonist(s) were serially diluted at 1:3 steps in DMSO and added to the cells. After 60 minutes in an incubator at 37 °C, 5% CO2, cells were stained with Hoechst-33342 and fixed with 2% paraformaldehyde for 30 minutes at 4 °C. Cells were then stained with wheat germ agglutinin conjugated to AlexaFluor647 (WGA-647) for 10 minutes at 4 °C, washed to remove excess dye and imaged with Cellomics Array Scan (Thermo Fisher) at room temperature (RT). Images were analyzed using Cellomics automated image analysis algorithm. Plasma membrane translocation was quantified using the ratio between the average fluorescence in the areas at the cell edge defined by WGA-647 and the cytoplasm region.

[5] = Plasma PK in rhesus macaques; format: in vivo, rhesus macaque; conditions: 0.03, 0.1, 0.3, and 1 mg/kg, slow IV infusion
Protocol: as §1, with “At unscheduled necropsy (1 mg/kg C-232A), tissues were preserved in 10% neutral-buffered formalin, embedded in paraffin, and processed to slides for staining with hematoxylin and eosin.” left out
Rat and rhesus plasma samples (20 µL aliquot of each) were treated with 100 µL acetonitrile containing a generic internal small-molecule standard. […] The descriptive PK parameters were analyzed using noncompartmental analysis with Phoenix WinNonlin software (version 8.2, Certara USA, Inc.). […]

[6] = test system: CD4+ T cells from ART-suppressed people with HIV; test: Cell viability (Cell Titer Glo); format: cell-based, human; conditions: 72 hours, doses that activated HIV RNA
Protocol: Supplementary file ppat.1012874.s011.png: S8 Fig Effect of C-233 on cell viability. CD4^+ T cells from ART-suppressed people with HIV were treated with the indicated C-233 concentrations for 72 hours. Cell viability was assessed using Promega Cell Titer Glo according to manufacturer’s instructions. Bars indicate the means and lines indicate standard deviation from 4 donors, each tested with 8 replicates. (PNG)

| SMILES | EC50 [1] | MTD [2] | circulating fibrinogen ([3]; 1 mg/kg) | coagulation times ([3]; 1 mg/kg) | histopathology ([3]; 1 mg/kg) | outcome (severe clinical signs) ([3]; 1 mg/kg, single IV infusion, 1 monkey) | tolerability ([3]; 0.03, 0.1, and 0.3 mg/kg, single IV infusion) | circulating platelet counts ([3]; higher doses) | mean platelet volume ([3]; higher doses) | EC50 [4] | PK plasma profile [5] | cell viability [6] |
| --- | --- | --- | --- | --- | --- | --- | --- | --- | --- | --- | --- | --- |
| Cc1ccc(C#Cc2ccc3oc(CC(C)(C)C(=O)OCC4(CO)CC(=CCC(CC(C)C)CC(C)C)C(=O)O4)cc3c2)cc1 (stereo not drawn) [C-232A] | 11.5 µM | 0.3 mg/kg | decreased | prolonged | hemorrhage in the lung and adrenal gland | euthanized 8 hours postdose | well tolerated | < 100,000 platelets/µL | > 15 fL | > 39.5 µM | dose-dependent C-232A PK plasma profiles | – |
| Cc1ccc(C#Cc2ccc(C(=O)OCC3(CO)Cc4c(-c5ccccc5)ccnc4O3)cc2)cc1 (stereo not drawn) [C-233] | – | – | – | – | – | – | – | – | – | – | – | without impairing viability |
